Data published in patent US6548543B1, “Remedies or preventives containing cyclopentenone compounds as the active ingredient” (Takara Shuzo Co., Ltd., priority 1998, dated 2003).

Target: T1, topoisomerase II (Homo sapiens, UniProt P11388)
T1 construct: purchased TopoGEN
Experiment: Topoisomerase II inhibition, pBR322 DNA relaxation
Assay type: biochemical
Conditions: 37° C., 30 minutes
Protocol: (1) 2 μl of topoisomerase II (TopoGEN; 2 units/μl), 2 μl of 10-fold concentrated buffer [0.5 M Tris-HCl (pH 8.0), 1.2 M KCl, 0.1 M MgCl2, 2.5 mM adenosine triphosphate, 5 mM dithiothreitol], 2 μl of 0.1% bovine serum albumin (Takara Shuzo), 11 μl of distilled water and 2 μl of distilled water (control) or 2 μl of one of aqueous solutions of dipropionylcyclopentenone, diisobutyrylcyclopentenone, dibenzoylcyclopentenone, dihexanoylcyclopentenone, di-2-hexenoylcyclopentenone, dimethoxyacetylcyclopentenone, dimethylfumarylcyclopentenone or dimethylmaleylcyclopentenone at varying concentrations were mixed together. 1 μl of 0.25 μg/μl pBR322 DNA (Takara Shuzo) was added thereto. The resulting mixture was reacted at 37° C. After reacting for 30 minutes, 2 μl of an aqueous solution containing 1% sodium dodecyl sulfate, 50% glycerol and 0.02% Bromophenol Blue was added thereto to stop the reaction.
20 μl of the reaction mixture was applied to 1% agarose gel prepared using agarose L03 (Takara Shuzo) and TAE buffer [40 mM Tris, 5 mM sodium acetate, 1 mm ethylenediaminetetraacetic acid disodium salt (EDTA); adjusted to pH 7.8 using acetic acid] and electrophoresed in TAE buffer. After electrophoresis, the gel was soaked in a 1 μg/ml aqueous ethidium bromide solution. The gel was exposed to ultraviolet rays to visualize the electophoretic pattern of DNA.

T1 sequence (P11388 whole entry): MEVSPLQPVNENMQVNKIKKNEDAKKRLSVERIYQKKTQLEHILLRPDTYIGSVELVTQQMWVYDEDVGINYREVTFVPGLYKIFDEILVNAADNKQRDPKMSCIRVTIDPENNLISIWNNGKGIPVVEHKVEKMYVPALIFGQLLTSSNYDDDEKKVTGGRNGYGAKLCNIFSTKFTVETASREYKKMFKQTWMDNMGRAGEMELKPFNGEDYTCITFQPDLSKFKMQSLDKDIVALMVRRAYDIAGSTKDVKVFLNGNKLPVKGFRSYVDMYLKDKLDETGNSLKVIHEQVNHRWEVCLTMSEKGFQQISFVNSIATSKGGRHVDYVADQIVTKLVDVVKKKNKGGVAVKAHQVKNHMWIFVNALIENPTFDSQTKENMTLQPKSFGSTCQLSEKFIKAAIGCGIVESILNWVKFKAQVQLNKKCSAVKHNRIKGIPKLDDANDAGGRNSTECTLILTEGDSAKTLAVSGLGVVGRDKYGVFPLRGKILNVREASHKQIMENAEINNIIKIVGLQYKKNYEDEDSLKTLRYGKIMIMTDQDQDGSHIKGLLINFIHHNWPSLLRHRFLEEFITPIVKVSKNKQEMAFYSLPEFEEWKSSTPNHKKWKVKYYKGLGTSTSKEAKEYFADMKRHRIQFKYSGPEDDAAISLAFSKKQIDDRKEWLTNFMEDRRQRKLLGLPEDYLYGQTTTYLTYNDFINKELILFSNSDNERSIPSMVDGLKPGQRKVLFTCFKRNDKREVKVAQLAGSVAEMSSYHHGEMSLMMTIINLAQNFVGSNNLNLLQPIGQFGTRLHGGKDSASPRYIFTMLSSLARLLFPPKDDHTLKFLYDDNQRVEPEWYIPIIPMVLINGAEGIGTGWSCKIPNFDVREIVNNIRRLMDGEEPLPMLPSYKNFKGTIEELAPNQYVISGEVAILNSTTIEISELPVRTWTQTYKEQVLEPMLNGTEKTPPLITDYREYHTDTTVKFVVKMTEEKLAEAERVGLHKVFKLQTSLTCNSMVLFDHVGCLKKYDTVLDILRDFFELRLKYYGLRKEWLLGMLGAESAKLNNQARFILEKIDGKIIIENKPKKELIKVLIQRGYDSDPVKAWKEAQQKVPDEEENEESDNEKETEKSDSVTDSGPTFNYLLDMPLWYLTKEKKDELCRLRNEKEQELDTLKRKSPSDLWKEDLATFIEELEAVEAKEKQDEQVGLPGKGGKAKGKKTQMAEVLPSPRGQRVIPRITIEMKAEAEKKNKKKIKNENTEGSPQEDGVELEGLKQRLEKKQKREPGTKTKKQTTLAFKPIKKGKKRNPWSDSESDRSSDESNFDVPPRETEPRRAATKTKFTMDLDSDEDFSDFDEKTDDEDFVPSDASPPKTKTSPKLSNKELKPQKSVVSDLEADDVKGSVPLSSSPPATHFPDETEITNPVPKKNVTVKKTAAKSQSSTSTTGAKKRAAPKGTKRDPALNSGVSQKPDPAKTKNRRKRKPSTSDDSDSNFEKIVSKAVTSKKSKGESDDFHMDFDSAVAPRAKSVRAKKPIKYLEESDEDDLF

CCC(=O)OC1C=CC(=O)C1OC(=O)CC (stereo not shown)
Concentration at which change of DNA from superhelical type to relaxed type was partially or completely inhibited: ≥ 0.1 µM
